The values below come from ChEMBL document CHEMBL1817632, “Synthesis and cytotoxic activity of the heptaphylline and 7-methoxyheptaphylline series” (Eur J Med Chem, 2011).

A word on the IC50: it is the concentration at which inhibition is half-maximal.

The source made the active and inactive calls. No cut-off for these calls is given here.

Data set [1] concerns Vero. In words: Cytotoxicity against african green monkey Vero cells expressing green fluorescent protein after 4 days by fluorescence analysis. In kind it is cell-based. The settings on record: chlorocebus sabaeus, 96 h.
Data set [2] relates to NCI-H187. Put plainly: Cytotoxicity against human NCI-H187 cells after 5 days by resazurin microplate assay. In kind it is functional, cell-based. The settings on record: NCI-H187, 120 h. On the technique in general: Resazurin is reduced to fluorescent resorufin, in cell work by metabolically active cells.
Data set [3] relates to KB. In words: Cytotoxicity against human KB cells after 3 days by resazurin microplate assay. In kind it is functional, cell-based. The settings on record: 72 h.
Data set [4] has as its system Vero. Put plainly: Cytotoxicity against african green monkey Vero cells expressing green fluorescent protein at > 200 uM after 4 days by fluorescence analysis. In kind it is cell-based. The settings on record: chlorocebus sabaeus, 96 h.
Data set [5] relates to NCI-H187. Put plainly: Ratio of Ellipticine IC50 to compound IC50 for human NCI-H187 cells. In kind it is functional.
Data set [6] relates to KB. Put plainly: Ratio of Ellipticine IC50 to compound IC50 for human KB cells. In kind it is functional.
The subject of data set [7] is NCI-H187. Put plainly: Cytotoxicity against human NCI-H187 cells at >200 uM after 5 days by resazurin microplate assay. In kind it is functional, cell-based.
For data set [8], the system named is KB. Put plainly: Cytotoxicity against human KB cells at >200 uM after 3 days by resazurin microplate assay. In kind it is functional, cell-based.

On to `Cc1c2ccncc2c(C)c2c1[nH]c1ccccc12` [ELLIPTECINE], for which the IC50 worked out at 3.82 µM in the data set on Vero [1] and 2.77 µM in the data set with NCI-H187 [2].
As to `CC(C)=CCc1c(O)c(C=O)cc2c3ccccc3n(C)c12`, the IC50 in the data set with Vero [1] was 34.6 µM; in the data set on KB [3], 166 µM; in the data set with NCI-H187 [2], 44.2 µM.
As for `CC1(C)CCc2c(c(C=O)cc3c2[nH]c2ccccc23)O1`, in the data set with Vero [4], the Activity entry is given as “Non-toxic”. For the same molecule, the IC50 in the data set on KB [3] came out at 26.4 µM; in the data set with NCI-H187 [2] it was 65.2 µM.
With `COc1cc2[nH]c3c(CC(Br)C(C)(C)O)c(O)c(C=O)cc3c2cc1Br` (stereo not given), the IC50 in the data set with Vero [1] was determined as 12.5 µM; with KB [3], 36.3 µM; with NCI-H187 [2], 0.66 µM. Also, in the data set on NCI-H187 [5], the “Ratio IC50” value is 4.
`CC(C)=CCc1c(O)c(/C=N\O)cc2c1[nH]c1ccccc12` [HEPTAPHYLLINE OXIME]: the IC50 with Vero [1] was found to be 66 µM; in the data set with KB [3] it was 0.17 µM; with NCI-H187 [2] it was 0.02 µM. Moreover, the “Ratio IC50” value with KB [6] is 10; in the data set on NCI-H187 [5] it was 138.
For the molecule `COc1cc2[nH]c3c4c(c(C=O)cc3c2cc1Br)OC(C)(C)C(Br)C4` (stereo not given), the Activity result in the data set on Vero [4] is reported as “Non-toxic”. The result in the data set with NCI-H187 [7] and with KB [8] was inactive.
Take `COc1ccc2c(c1)[nH]c1c(CC3OC3(C)C)c(O)c(C=O)cc12` (stereo not given): the IC50 turned out to be 75.3 µM with Vero [1], 9.22 µM in the data set with KB [3] and 20.1 µM with NCI-H187 [2].
Turning to `COc1ccc2c(c1)[nH]c1c(CC=C(C)C)c(O)c(C=O)cc12`, the Activity result in the data set with Vero [4] is on record as “Non-toxic”.
Consider `COc1ccc2c(c1)[nH]c1c(CC=C(C)C)c(O)c(/C=N\O)cc12`, for which the Activity entry in the data set on Vero [4] is “Non-toxic”. The IC50 with KB [3] amounted to 18.2 µM; with NCI-H187 [2], 3.67 µM.
With `COc1ccc2c(c1)[nH]c1c3c(c(C=O)cc12)OC(C)(C)C(O)C3` (stereo not given), the Activity result with Vero [4] is reported as “Non-toxic”. In addition, the IC50 with KB [3] is 120 µM; with NCI-H187 [2] it was 3.04 µM.
Take `COc1ccc2c(c1)[nH]c1c3c(c(C=O)cc12)OC(C)(C)CC3`: the Activity entry in the data set on Vero [4] is “Non-toxic”. For the same molecule, the outcome in the data set with NCI-H187 [7] and in the data set on KB [8] was inactive.
`COc1ccc2c(c1)[nH]c1c(CC=C(C)C)c(OC)c(C=O)cc12`: the IC50 in the data set on Vero [1] is 61.1 µM; in the data set on KB [3], 11 µM; in the data set with NCI-H187 [2] it was 19.5 µM.
For `COc1c(C=O)cc2c([nH]c3ccccc32)c1CC=C(C)C`, in that order: 170 µM, 12.8 µM and 4.49 µM.
Turning to `CC1(C)Oc2c(C=O)cc3c([nH]c4ccccc43)c2CC1Br` (stereo not given), the Activity entry in the data set with Vero [4] is “Non-toxic”. Further, the IC50 came out at 6 µM in the data set with KB [3] and 77.4 µM with NCI-H187 [2].
On the same counts, the results for `CC(C)(O)C(Br)Cc1c(O)c(C=O)cc2c1[nH]c1ccccc12` (stereo not given) are “Non-toxic”, 17.4 µM and 30.2 µM.
For `COc1ccc2c(c1)[nH]c1c3c(c(C=O)cc12)OC(C(C)(C)O)C3` (stereo not given), in that order: “Non-toxic”, 71.2 µM and 12.9 µM.
Regarding `CC1(C)OC1Cc1c(O)c(C=O)cc2c1[nH]c1ccccc12` (stereo not given), the figures for the IC50 in the data set on Vero [1], in the data set on KB [3] and with NCI-H187 [2] were 74.5 µM, 54.8 µM and 5.31 µM, respectively.
Regarding `COc1c(C=O)cc2c3ccccc3n(C)c2c1CC=C(C)C`, the IC50 in the data set on Vero [1] came to 149 µM; in the data set on KB [3], 147 µM; in the data set with NCI-H187 [2], 62.5 µM.
Consider `CC1(C)Oc2c(C=O)cc3c([nH]c4ccccc43)c2CC1O` (stereo not given), for which, in the data set on Vero [4], the Activity entry was “Non-toxic”. In addition, the figures for the IC50 with KB [3] and in the data set with NCI-H187 [2] were 5.99 µM and 6.06 µM, respectively.
With `COc1ccc2c3cc(C=O)c(OC)c(CC=C(C)C)c3n(C)c2c1`, the IC50 with Vero [1] worked out at 45.9 µM; in the data set with KB [3] it was 69.8 µM; in the data set with NCI-H187 [2], 4.83 µM.
